Data on 8 compounds can be found in patent US20100035866A1, “NOVEL SUBSTITUTED-1, 1-DIOXO-BENZO[1,2,4]THIADIAZIN-3ONES, PREPARATION METHOD THEREOF, AND PHARMACEUTICAL COMPOSITION CONTAINING THE SAME” (KOREA RESEARCH INSTITUTE OF CHEMICAL TECHNOLOGY, priority 2006, published 2010).

Where only a bound is given, the exact number is not on record here.

One series deals with T1, 5-HT1a (Homo sapiens, UniProt P08908).
T1 construct: purchased Euroscreen/BioSignal Packard Inc
T1 sequence (P08908 1-422): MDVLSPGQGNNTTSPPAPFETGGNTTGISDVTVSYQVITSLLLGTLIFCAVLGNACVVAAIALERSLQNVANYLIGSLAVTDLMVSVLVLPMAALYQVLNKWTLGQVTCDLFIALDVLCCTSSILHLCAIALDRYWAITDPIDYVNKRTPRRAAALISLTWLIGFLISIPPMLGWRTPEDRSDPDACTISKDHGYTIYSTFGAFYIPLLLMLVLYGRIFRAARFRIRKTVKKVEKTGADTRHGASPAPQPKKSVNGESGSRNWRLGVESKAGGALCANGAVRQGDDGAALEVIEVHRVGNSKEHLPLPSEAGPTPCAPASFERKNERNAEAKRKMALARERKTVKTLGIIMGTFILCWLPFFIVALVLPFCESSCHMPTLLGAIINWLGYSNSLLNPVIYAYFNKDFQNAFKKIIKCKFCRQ
In words: Radioligand binding, 5-HT receptor family: 5-HT1a ([3H]8-OH-DPAT). The settings on record: CHO-K1 human recombinant receptor, [3H]8-OH-DPAT 0.5 nM; read-out: Binding affinity, IC50 (nM), 5-HT1a.

The next series deals with T2, 5-HT2a (Homo sapiens, UniProt P28223).
T2 construct: purchased Euroscreen/BioSignal Packard Inc
In words: Radioligand binding, 5-HT receptor family: 5-HT2a ([3H]Ketanserin). The settings on record: CHO-K1 human recombinant receptor, [3H]Ketanserin 1 nM; read-out: Binding affinity, IC50 (nM), 5-HT2a.

The target in the next series is T3, 5-HT2c (Homo sapiens, UniProt P28335).
T3 construct: purchased Euroscreen/BioSignal Packard Inc
T3 sequence (P28335 33-458): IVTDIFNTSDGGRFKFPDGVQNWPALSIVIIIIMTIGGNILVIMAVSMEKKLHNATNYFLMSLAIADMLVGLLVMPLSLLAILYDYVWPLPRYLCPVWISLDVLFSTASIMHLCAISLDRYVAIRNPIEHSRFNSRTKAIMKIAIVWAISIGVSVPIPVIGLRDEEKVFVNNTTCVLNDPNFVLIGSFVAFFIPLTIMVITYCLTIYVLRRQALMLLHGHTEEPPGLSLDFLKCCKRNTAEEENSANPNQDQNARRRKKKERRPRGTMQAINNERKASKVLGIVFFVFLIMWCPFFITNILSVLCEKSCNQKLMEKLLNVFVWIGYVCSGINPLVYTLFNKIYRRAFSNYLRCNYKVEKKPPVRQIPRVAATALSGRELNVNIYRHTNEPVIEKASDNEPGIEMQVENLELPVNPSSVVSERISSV
In words: Radioligand binding, 5-HT receptor family: 5-HT2c ([3H]Mesulergine). The following applies: CHO-K1 human recombinant receptor, [3H]Mesulergine 1 nM; read-out: Binding affinity, IC50 (nM), 5-HT2c.

The next series concerns the target T4, 5-HT7 (Homo sapiens, UniProt P34969).
T4 construct: purchased Euroscreen/BioSignal Packard Inc
Kind of series: Radioligand binding, 5-HT receptor family: 5-HT7 ([3H]LSD). The following applies: CHO-K1 human recombinant receptor, [3H]LSD 3 nM; read-out: Binding affinity, IC50 (nM), 5-HT7. How it is done: Radioligand bindings were performed according to the test method provided by the supplier of receptor membrane (Euroscreen/BioSignal Packard Inc.). The detailed assay conditions and the results were shown in the following Table 3 and Table 4, respectively.

The next series has as its target D1 (Homo sapiens, UniProt P21728). Kind of series: Dopamine receptor family binding: D1. The following applies: read-out: Binding affinity, IC50 (nM), D1.
A further series addresses T5, hD2L receptor (Homo sapiens, UniProt P14416).
T5 construct: purchased BioSignal Packard Inc., Montreal, Canada
In words: Dopamine receptor family binding: D2 ([3H]spiperone). The settings on record: [3H]spiperone 1 nM; read-out: Binding affinity, IC50 (nM), D2. On the procedure: (§1) 2-2: Binding Assays of Dopamine Receptor Family
(§2) The radioligands used were [^3H]spiperone (for hD2L and hD3 receptors, 1 nM) and [^3H] YM-09151-2 (for hD4.2 receptor, 0.06 nM). Radioligand bindings were performed by the protocols provided by the supplier of receptor membranes (BioSignal Packard Inc., Montreal, Canada). Briefly, the buffer used in D2 or D3 receptor binding assay was 50 mM Tris-HCl (pH 7.4), 10 mM MgCl2, 1 mM EDTA, or 50 mM Tris-HCl (pH 7.4), 5 mM MgCl2 5 mM EDTA, 5 mM KCl, 1.5 mM CaCl2, 120 mM NaCl, respectively. In [^3H] YM-09151-2 receptor binding assays, the buffer containing 50 mM Tris-HCl (pH 7.4), 5 mM MgCl2, 5 mM EDTA, 5 mM KCl and 1.5 mM CaCl2 was used. […] Competition binding studies were carried out with 7-8 concentrations of the test compound run in duplicate tubes, and isotherms from three assays were calculated by computerized nonlinear regression analysis (GraphPad Prism Program, San Diego, […]) to yield median inhibitory concentration (IC50) values.

In a further series the target is T6, hD3 receptor (Homo sapiens, UniProt P35462).
T6 construct: purchased BioSignal Packard Inc., Montreal, Canada
In words: Dopamine receptor family binding: D3 ([3H]spiperone). The settings on record: [3H]spiperone 1 nM; read-out: Binding affinity, IC50 (nM), D3.

In a further series the target is T7, hD4.2 receptor (Homo sapiens, UniProt P21917, DEL265-296).
T7 construct: purchased BioSignal Packard Inc., Montreal, Canada
T7 sequence (P21917 with tags, fused parts or gaps DEL265-296): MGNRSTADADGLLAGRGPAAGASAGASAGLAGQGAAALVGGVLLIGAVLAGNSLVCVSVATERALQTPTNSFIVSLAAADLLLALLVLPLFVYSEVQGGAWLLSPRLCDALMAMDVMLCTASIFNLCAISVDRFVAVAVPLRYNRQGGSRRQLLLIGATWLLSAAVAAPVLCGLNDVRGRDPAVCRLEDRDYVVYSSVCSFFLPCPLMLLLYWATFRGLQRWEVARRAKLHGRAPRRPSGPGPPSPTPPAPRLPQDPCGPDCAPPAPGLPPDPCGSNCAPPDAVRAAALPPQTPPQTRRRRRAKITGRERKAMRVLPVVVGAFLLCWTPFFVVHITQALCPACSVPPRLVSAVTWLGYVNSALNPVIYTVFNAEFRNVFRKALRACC
In words: Dopamine receptor family binding: D4 ([3H]YM-09151-2). The following applies: [3H]YM-09151-2 0.06 nM; read-out: Binding affinity, IC50 (nM), D4. How it is done:
as §1, §2

In series [1] the target is Human serotonin 5-HT6 receptor (Homo sapiens, UniProt P50406). Kind of series: [3H]LSD binding assay on cloned 5-HT6 receptor. The following applies: IC50 (nM).
[2] abbreviates: Binding affinity, 5-HT6, Table 4.
The mark [3] stands for this setting: binding affinity to the 5-HT6 receptor, Table 2, 1.87 nM [3H]LSD, cloned human receptor membranes from Sf21 cells, 37° C. 60 min.

T6 sequence (P35462 whole entry): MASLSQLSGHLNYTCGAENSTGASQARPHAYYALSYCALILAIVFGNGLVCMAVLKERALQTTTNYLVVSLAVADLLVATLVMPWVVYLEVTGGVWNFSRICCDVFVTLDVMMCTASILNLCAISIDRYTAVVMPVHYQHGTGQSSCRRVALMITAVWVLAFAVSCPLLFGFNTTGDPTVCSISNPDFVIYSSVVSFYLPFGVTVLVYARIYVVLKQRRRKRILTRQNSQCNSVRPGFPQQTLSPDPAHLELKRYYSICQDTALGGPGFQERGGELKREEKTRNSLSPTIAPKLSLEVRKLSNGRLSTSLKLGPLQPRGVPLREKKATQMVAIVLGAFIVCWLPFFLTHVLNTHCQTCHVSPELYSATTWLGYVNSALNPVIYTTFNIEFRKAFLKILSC
Chain of Human serotonin 5-HT6 receptor (P50406 whole entry): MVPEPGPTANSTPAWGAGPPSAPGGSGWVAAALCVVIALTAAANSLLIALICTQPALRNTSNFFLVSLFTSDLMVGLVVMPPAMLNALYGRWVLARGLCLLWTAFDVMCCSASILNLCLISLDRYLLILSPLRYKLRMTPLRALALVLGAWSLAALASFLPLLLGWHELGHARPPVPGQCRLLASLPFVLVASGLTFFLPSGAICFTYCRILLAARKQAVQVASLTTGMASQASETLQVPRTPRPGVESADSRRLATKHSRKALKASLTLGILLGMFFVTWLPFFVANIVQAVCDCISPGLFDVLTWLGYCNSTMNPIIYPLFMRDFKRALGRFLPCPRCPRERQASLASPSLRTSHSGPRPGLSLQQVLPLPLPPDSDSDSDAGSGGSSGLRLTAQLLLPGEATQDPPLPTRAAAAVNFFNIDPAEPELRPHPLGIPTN
T4 sequence (P34969 whole entry): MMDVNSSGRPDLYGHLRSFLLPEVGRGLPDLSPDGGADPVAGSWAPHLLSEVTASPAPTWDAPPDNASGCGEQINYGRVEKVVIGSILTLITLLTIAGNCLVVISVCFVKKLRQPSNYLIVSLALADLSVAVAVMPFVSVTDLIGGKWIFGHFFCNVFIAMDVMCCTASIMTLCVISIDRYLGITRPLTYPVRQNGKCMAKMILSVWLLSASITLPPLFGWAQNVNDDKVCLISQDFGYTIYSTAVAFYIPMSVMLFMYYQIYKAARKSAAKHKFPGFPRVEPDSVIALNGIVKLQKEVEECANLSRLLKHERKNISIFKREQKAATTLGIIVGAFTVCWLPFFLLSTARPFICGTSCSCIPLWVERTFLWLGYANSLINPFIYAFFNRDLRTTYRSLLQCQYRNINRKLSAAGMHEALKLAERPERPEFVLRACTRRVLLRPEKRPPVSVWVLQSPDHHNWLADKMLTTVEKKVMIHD
T2 sequence (P28223 whole entry): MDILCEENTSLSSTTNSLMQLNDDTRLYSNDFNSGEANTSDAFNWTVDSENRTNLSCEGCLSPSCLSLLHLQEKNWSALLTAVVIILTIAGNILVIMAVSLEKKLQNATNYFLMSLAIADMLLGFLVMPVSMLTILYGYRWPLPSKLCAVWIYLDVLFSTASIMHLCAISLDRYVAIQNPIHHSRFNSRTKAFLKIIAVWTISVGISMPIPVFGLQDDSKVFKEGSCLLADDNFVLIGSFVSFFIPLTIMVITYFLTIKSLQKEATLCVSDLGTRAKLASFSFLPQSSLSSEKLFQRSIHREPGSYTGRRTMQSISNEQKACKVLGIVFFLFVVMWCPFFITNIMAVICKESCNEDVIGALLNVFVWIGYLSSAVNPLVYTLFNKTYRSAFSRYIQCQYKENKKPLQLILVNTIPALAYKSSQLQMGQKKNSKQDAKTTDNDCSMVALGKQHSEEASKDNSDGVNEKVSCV
T5 sequence (P14416 whole entry): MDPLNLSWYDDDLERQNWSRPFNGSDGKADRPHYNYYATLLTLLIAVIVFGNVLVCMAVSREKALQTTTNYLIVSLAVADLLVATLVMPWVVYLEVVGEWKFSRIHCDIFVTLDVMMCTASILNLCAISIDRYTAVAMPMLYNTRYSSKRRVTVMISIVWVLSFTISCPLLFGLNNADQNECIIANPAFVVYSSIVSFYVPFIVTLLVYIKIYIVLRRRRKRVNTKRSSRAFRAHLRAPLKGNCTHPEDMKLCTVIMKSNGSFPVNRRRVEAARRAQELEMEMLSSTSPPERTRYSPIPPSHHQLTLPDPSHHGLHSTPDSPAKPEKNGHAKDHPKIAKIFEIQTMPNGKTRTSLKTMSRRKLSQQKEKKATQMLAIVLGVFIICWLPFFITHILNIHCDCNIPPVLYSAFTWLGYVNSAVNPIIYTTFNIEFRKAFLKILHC
Chain of D1 (P21728 whole entry): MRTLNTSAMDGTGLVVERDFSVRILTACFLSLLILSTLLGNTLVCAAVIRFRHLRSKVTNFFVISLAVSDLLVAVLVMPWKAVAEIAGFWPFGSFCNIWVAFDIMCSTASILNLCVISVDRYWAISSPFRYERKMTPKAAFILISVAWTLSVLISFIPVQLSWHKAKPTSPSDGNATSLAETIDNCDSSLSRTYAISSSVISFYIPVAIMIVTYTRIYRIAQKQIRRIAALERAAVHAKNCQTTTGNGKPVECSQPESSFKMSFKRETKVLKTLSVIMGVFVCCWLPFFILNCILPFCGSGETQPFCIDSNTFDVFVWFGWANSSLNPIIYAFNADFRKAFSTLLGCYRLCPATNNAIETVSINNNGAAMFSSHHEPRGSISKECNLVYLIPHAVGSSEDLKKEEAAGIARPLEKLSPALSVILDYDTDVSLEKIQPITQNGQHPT

The compound `COc1cccc(CN2C(=O)N(Cc3ccccc3)c3cc(Cl)cc(N4CCN(C)CC4)c3S2(=O)=O)c1` [Example 17, 4-Benzyl-6-chloro-2-(3-methoxy-benzyl)-8-(4-methyl-piperazin-1-yl)-1,1-dioxo-1,4-dihydro-2H-1λ^6-benzo[1,2,4]thiadiazin-3-one] gave a melting point of 85 to 86 °C. In addition, at 5-HT1a, the IC50 worked out at 1950 nM. On 5-HT2a, the IC50 was found to be 318 nM. The IC50 at 5-HT2c came to 899 nM. The IC50 at 5-HT7 is greater than 10000 nM. Also, the IC50 on D1 came out at 4730 nM. The IC50 on hD2L receptor was determined as 4860 nM. Besides, on hD3 receptor, the IC50 is 537 nM. Besides, the IC50 at hD4.2 receptor is greater than 10000 nM. In series [1] (setting [2]), this compound returned an IC50 of 10.9 nM. The compound further displayed an IC50 in series [1] (setting [3]) of 10.6 nM.

As to `COc1cccc(CN2C(=O)N(Cc3ccccc3)c3cc(Cl)cc(N4CCNCC4)c3S2(=O)=O)c1` [Example 52, 4-Benzyl-6-chloro-2-(3-methoxy-benzyl)-1,1-dioxo-8-piperazin-1-yl-1,4-dihydro-2H-1λ^6-benzo[1,2,4]thiadiazin-3-one], the melting point was 98 to 100 °C. On 5-HT1a, the IC50 came out at 1860 nM. For the same compound, the IC50 at 5-HT2a is 1000 nM. On 5-HT2c, the IC50 amounted to 1350 nM. Further, the IC50 on 5-HT7 amounted to 6780 nM. In addition, on D1, the IC50 was determined as 3140 nM. Further, the IC50 at hD2L receptor was determined as 3220 nM. In addition, the IC50 on hD3 receptor stood at 531 nM. In addition, the IC50 at hD4.2 receptor is greater than 10000 nM. In [1] (setting [2]), this compound displayed an IC50 of 2 nM. Moreover, the IC50 in series [1] (setting [3]) worked out at 5.8 nM.

For `COc1ccc(CN2C(=O)N(Cc3ccccc3)c3cc(Cl)cc(N4CCNCC4)c3S2(=O)=O)cc1` [Example 53, 4-Benzyl-6-chloro-2-(4-methoxy-benzyl)-1,1-dioxo-8-piperazin-1-yl-1,4-dihydro-2H-1λ^6-benzo[1,2,4]thiadiazin-3-one], the IC50 is 3260 nM on 5-HT1a; 651 nM at 5-HT2a; 961 nM on 5-HT2c; 6580 nM at 5-HT7; greater than 10000 nM at D1; 2440 nM at hD2L receptor. In addition, the 50% inhibitory concentration (IC50) is 844 nM on hD3 receptor, greater than 10000 nM on hD4.2 receptor, 11.8 nM in series [1] (setting [2]) and 11.8 nM in series [1] (setting [3]).

Regarding `O=C1N(Cc2ccccc2)c2cc(Cl)cc(N3CCNCC3)c2S(=O)(=O)N1Cc1cccc(O)c1` [Example 54, 4-Benzyl-6-chloro-2-(3-hydroxy-benzyl)-1,1-dioxo-8-piperazin-1-yl-1,4-dihydro-2H-1λ^6-benzo[1,2,4]thiadiazin-3-one], the melting point lay in the range of 230 to 231 °C. Moreover, the IC50 on 5-HT1a is 621 nM. For the same compound, the IC50 at 5-HT2a was 1150 nM. Also, on 5-HT2c, the IC50 worked out at 1800 nM. For the same compound, the IC50 on 5-HT7 is greater than 10000 nM. Also, on D1, the IC50 was 4100 nM. At hD2L receptor, the IC50 was determined as 2280 nM. Besides, the IC50 on hD3 receptor amounted to 804 nM. Also, the IC50 at hD4.2 receptor was greater than 10000 nM. The compound also showed an IC50 in series [1] (setting [2]) of 5.8 nM. Further, in [1] (setting [3]), the IC50 was 1 nM.

Turning to `C[C@H](c1ccccc1)N1C(=O)N(Cc2ccccc2)c2cc(Cl)cc(N3CCNCC3)c2S1(=O)=O` [Example 58, 4-Benzyl-6-chloro-1,1-dioxo-2-[(R)-1-phenyl-ethyl]-8-piperazin-1-yl-1,4-dihydro-2H-1λ^6-benzo[1,2,4]thiadiazin-3-one], the half-maximal inhibitory concentration (IC50) was greater than 10000 nM on 5-HT1a; 549 nM at 5-HT2a; 424 nM on 5-HT2c; 6390 nM at 5-HT7; 1780 nM at D1; 4500 nM on hD2L receptor. Moreover, the IC50 at hD3 receptor is 398 nM; at hD4.2 receptor, greater than 10000 nM; in series [1] (setting [2]) it was 2.3 nM; in [1] (setting [3]), 2.3 nM.

Turning to `C[C@@H](c1ccccc1)N1C(=O)N(Cc2ccccc2)c2cc(Cl)cc(N3CCNCC3)c2S1(=O)=O` [Example 59, 4-Benzyl-6-chloro-1,1-dioxo-2-[(S)-1-phenyl-ethyl]-8-piperazin-1-yl-1,4-dihydro-2H-1λ^6-benzo[1,2,4]thiadiazin-3-one], the IC50 came out at 1400 nM on 5-HT1a; 272 nM on 5-HT2a; 508 nM at 5-HT2c; 2300 nM at 5-HT7; 4100 nM at D1; 4640 nM on hD2L receptor. In addition, the IC50 on hD3 receptor is 403 nM; on hD4.2 receptor, greater than 10000 nM; in series [1] (setting [2]), 3 nM; in [1] (setting [3]) it was 3 nM.

With `COc1cccc(N2C(=O)N(Cc3ccccc3)c3cc(Cl)cc(N4CCNCC4)c3S2(=O)=O)c1` [Example 62, 4-Benzyl-6-chloro-2-(3-methoxy-phenyl)-1,1-dioxo-8-piperazin-1-yl-1,4-dihydro-2H-1λ^6-benzo[1,2,4]thiadiazin-3-one], the IC50 on 5-HT1a is 926 nM; on 5-HT2a it was 3170 nM; at 5-HT2c it was 4960 nM; at 5-HT7, greater than 10000 nM; at D1, 5590 nM; on hD2L receptor, greater than 10000 nM. Moreover, the IC50 on hD3 receptor is 2370 nM; at hD4.2 receptor, greater than 10000 nM; in series [1] (setting [2]) it was 10.2 nM; in series [1] (setting [3]), 10.2 nM.

In turn, `Cc1cc(C)cc(CCCN2C(=O)N(Cc3ccccc3)c3cc(Cl)cc(N4CCNCC4)c3S2(=O)=O)c1` [Example 66, 4-Benzyl-6-chloro-2-[3-(3,5-dimethyl-phenyl)-propyl]-1,1-dioxo-8-piperazin-1-yl-1,4-dihydro-2H-1λ^6-benzo[1,2,4]thiadiazin-3-one] displayed a melting point of 226 to 228 °C. Besides, the IC50 on 5-HT1a came to 1840 nM. In addition, on 5-HT2a, the IC50 worked out at 710 nM. Moreover, the IC50 on 5-HT2c turned out to be 498 nM. Also, the IC50 on 5-HT7 worked out at 4530 nM. Further, the IC50 at D1 turned out to be 1180 nM. The concentration for half-maximal inhibition (IC50) on hD2L receptor turned out to be 1640 nM. Moreover, the IC50 at hD3 receptor was determined as 488 nM. Moreover, on hD4.2 receptor, the IC50 is greater than 10000 nM. In addition, the IC50 in [1] (setting [2]) is 3.8 nM. In series [1] (setting [3]), the IC50 came to 3.8 nM.
